Data reported in patent US20230348422A1, “ALBICIDIN DERIVATIVES, THEIR USE AND SYNTHESIS” (TECHNISCHE UNIVERSITÄT BERLIN, priority 2020, published 2023).
In brackets after ≈: the same amount, converted by molar mass. Where two headings read alike, the source gives them in different places.

What was measured:
Assay in all cases: Microdilution assay, MIC
Type in all cases: cell-based
M. phlei DSM 750 = settings: Mycolicibacterium phlei, read-out: MIC M. phlei DSM 750
B. subtilis DSM 10 = settings: Bacillus subtilis, read-out: MIC B. subtilis DSM 10
Experimental: (§1) The tests were performed using the micro dilution method.
(§2) The determination of MIC values was performed according to the ninth edition of the Approved Standard M07-A9 (CLSI. Methods for Dilution Antimicrobial Susceptibility Tests for Bacteria That Grow Aerobically; Approved Standard-Ninth Edition. CLSI document M07-A9. Wayne, PA: Clinical and Laboratory Standards Institute; 2012.)
(§3) The test was carried out for four different bacterial strains (E. coli DSM 1116 [gram negative], B. subtilis DSM 10 [gram positive], M. luteus DSM 1790 [gram positive], S. typhimurium TA100 [gram negative]). 20 μL of cryo stock of each strain were inoculated in 20 mL of LB media (Lysogeny broth: 10 g/L peptone, 5 g/L yeast extract, 5 g/L NaCl) followed by incubation over night at 37° C., 200 rpm. The test inoculum was adjusted by the 0.5 McFarland Standard (OD625 from 0.08 to 0.1). Within 15 min of preparation, the adjusted inoculum suspension was diluted in MHBII media (BBL TM Mueller-Hinton Broth II, Becton, Dickinson and Company, New Jersey/USA) so that each well contained approximately 5×10^5 CFU/mL in a final volume of 100 μL. 95 μL of the inoculum were applied per well and 5 μL of the (diluted) antibiotic substance were added.
(§4) Previously the dry antibiotic compounds were dissolved in DMSO (100%) with a concentration of 2560 μg/mL and the resulting stock solutions were further diluted in DMSO (100%). 5 μL of each antibiotic dilution were applied to the microdilution tray to reach final concentrations of 64 μg/mL to 0.008 μg/mL. One row of each well plate was left as a growth control without antibiotic substances and another row of the microdilution tray was used as sterility control (only MHB II-media). The antimicrobial effect of the solvent (DMSO) was tested by adding 5 μL DMSO to several wells without antibiotics. Purity check and cell titer control were performed according to International Standard M07-A9 on Mueller-Hinton II Agar (Mueller Hinton II Broth, 15 g/L agar-agar). Both microdilution trays and agar plates were incubated at 37° C. for 20 h and subsequently analyzed visually.
(§5) The potency of an antibiotic is determined by the minimum inhibitory concentration (MIC). Contrary to intuition, a particularly low value is equated with a high potency.

S. typhimurium TA 100 = settings: Salmonella enterica, 20 h, read-out: MIC S. typhimurium TA 100
Experimental: as §1, §2, §3, §4, §5

E. coli DSM 1116 = settings: Escherichia coli, read-out: MIC E. coli DSM 1116
Experimental: as §1, §2, §3, §4, §5

M. luteus DSM 1790 = settings: Micrococcus luteus, read-out: MIC M. luteus DSM 1790
Experimental: as §1, §2, §3, §4, §5

E. coli BW25113 = settings: Escherichia coli, read-out: MIC E. coli BW25113
[1] = DSM750, Gram-positive, MHBII media, 37° C., 20 h
[2] = DSM10, Gram-positive, MHBII media, 37° C., 20 h
[3] = Gram-negative, MHBII media, 37° C.
[4] = DSM1116, Gram-negative, MHBII media, 37° C., 20 h
[5] = DSM1790, Gram-positive, MHBII media, 37° C., 20 h
[6] = BW25113, Gram-negative, MHBII media, 37° C., 20 h

SMILES | MIC (M. phlei DSM 750; DSM750, 20 h) [mg/L] | MIC (B. subtilis DSM 10; DSM10, 20 h) [mg/L] | MIC (S. typhimurium TA 100) [mg/L] | MIC (E. coli DSM 1116; DSM1116, 20 h) [mg/L] | MIC (M. luteus DSM 1790; DSM1790, 20 h) [mg/L] | MIC (E. coli BW25113; BW25113, 20 h) [mg/L] | MIC (M. phlei DSM 750; [1]) [mg/L] | MIC (B. subtilis DSM 10; [2]) [mg/L] | MIC (S. typhimurium TA 100; [3]) [mg/L] | MIC (E. coli DSM 1116; [4]) [mg/L] | MIC (M. luteus DSM 1790; [5]) [mg/L] | MIC (E. coli BW25113; [6]) [mg/L]
COc1c(NC(=O)c2ccc(NC(=O)c3ccc(NC(=O)[C@H](Cc4cnn[nH]4)NC(=O)c4ccc(C#Cc5ccc(C#N)cc5)cc4)cc3)c(OC)c2O)ccc(C(=O)O)c1O [Compound 1] | 1 (≈ 1.2 µM) | 0.25 (≈ 0.299 µM) | ≤ 0.016 | ≤ 0.016 | 0.25 (≈ 0.299 µM) | 0.031 (≈ 0.0371 µM) | – | – | – | – | – | –
COc1c(NC(=O)c2ccc(NC(=O)c3ccc(NC(=O)[C@H](Cc4cnn[nH]4)NC(=O)c4ccc(CCc5ccc(O)cc5)cc4)cc3)c(OC)c2O)ccc(C(=O)O)c1O [Compound 9] | – | – | – | – | – | – | 4 (≈ 4.82 µM) | 2 (≈ 2.41 µM) | 0.125 (≈ 0.151 µM) | 0.5 (≈ 0.603 µM) | 2 (≈ 2.41 µM) | 0.25 (≈ 0.301 µM)
COc1c(/C=C/c2ccc(NC(=O)[C@H](Cc3cnn[nH]3)NC(=O)c3ccc(NC(=O)/C(C)=C/c4ccc(O)cc4)cc3)cc2)ccc(C(=O)Nc2ccc(C(=O)O)c(O)c2OC)c1O [Compound 17] | – | – | – | – | – | – | 0.5 (≈ 0.576 µM) | 0.063 (≈ 0.0726 µM) | 0.063 (≈ 0.0726 µM) | 0.125 (≈ 0.144 µM) | 0.125 (≈ 0.144 µM) | 0.125 (≈ 0.144 µM)
COc1c(/C=C(\F)c2ccc(NC(=O)[C@H](Cc3cnn[nH]3)NC(=O)c3ccc(NC(=O)/C(C)=C/c4ccc(O)cc4)cc3)cc2)ccc(C(=O)Nc2ccc(C(=O)O)c(O)c2OC)c1O [Compound 16] | 0.25 (≈ 0.282 µM) | 0.031 (≈ 0.035 µM) | 0.031 (≈ 0.035 µM) | 0.063 (≈ 0.0711 µM) | 0.063 (≈ 0.0711 µM) | 0.063 (≈ 0.0711 µM) | – | – | – | – | – | –
C#Cc1ccc(C(=O)Nc2ccc(C(=O)N[C@@H](Cc3cnn[nH]3)C(=O)Nc3ccc(C(=O)Nc4ccc(C(=O)Nc5ccc(C(=O)O)c(O)c5OC)c(O)c4OC)cc3)cc2)cc1 [Compound 14] | – | – | – | – | – | – | 1 (≈ 1.17 µM) | 0.5 (≈ 0.586 µM) | 0.063 (≈ 0.0739 µM) | 0.063 (≈ 0.0739 µM) | 0.5 (≈ 0.586 µM) | 0.063 (≈ 0.0739 µM)
COc1ccc(C#Cc2ccc(C(=O)N[C@@H](Cc3cnn[nH]3)C(=O)Nc3ccc(C(=O)Nc4ccc(C(=O)Nc5ccc(C(=O)O)c(O)c5OC)c(O)c4OC)cc3)cc2)cn1 [Compound 4] | – | – | – | – | – | – | 1 (≈ 1.19 µM) | 0.25 (≈ 0.297 µM) | ≤ 0.016 | 0.063 (≈ 0.0749 µM) | 0.5 (≈ 0.595 µM) | 0.063 (≈ 0.0749 µM)
COc1c(NC(=O)c2ccc(NC(=O)c3ccc(NC(=O)[C@H](Cc4cnn[nH]4)NC(=O)c4ccc(/C=C/c5ccc(O)cc5)cc4)cc3)c(OC)c2O)ccc(C(=O)O)c1O [Compound 3] | – | – | – | – | – | – | 4 (≈ 4.83 µM) | 0.5 (≈ 0.604 µM) | 0.125 (≈ 0.151 µM) | 0.5 (≈ 0.604 µM) | 1 (≈ 1.21 µM) | 0.25 (≈ 0.302 µM)
COc1c(C#Cc2ccc(NC(=O)[C@H](Cc3cnn[nH]3)NC(=O)c3ccc(NC(=O)/C(C)=C/c4ccc(O)cc4)cc3)cc2)ccc(C(=O)Nc2ccc(C(=O)O)c(O)c2OC)c1O [Compound 18] | – | – | – | – | – | – | 0.5 (≈ 0.577 µM) | 0.063 (≈ 0.0728 µM) | 0.016 (≈ 0.0185 µM) | 0.063 (≈ 0.0728 µM) | 0.25 (≈ 0.289 µM) | 0.063 (≈ 0.0728 µM)
COc1c(NC(=O)c2ccc(NC(=O)c3ccc(NC(=O)[C@H](Cc4cnn[nH]4)NC(=O)c4ccc(C#Cc5ccc(O)cc5)cc4)cc3)c(OC)c2O)ccc(C(=O)O)c1O [Compound 5] | – | – | – | – | – | – | 1 (≈ 1.21 µM) | 2 (≈ 2.42 µM) | 0.031 (≈ 0.0375 µM) | 0.063 (≈ 0.0763 µM) | 2 (≈ 2.42 µM) | 0.125 (≈ 0.151 µM)
COc1ccc(C#Cc2ccc(C(=O)N[C@@H](Cc3cnn[nH]3)C(=O)Nc3ccc(C(=O)Nc4ccc(C(=O)Nc5ccc(C(=O)O)c(O)c5OC)c(O)c4OC)cc3)cc2)cc1 [Compound 2a] | – | – | – | – | – | – | 1 (≈ 1.19 µM) | 0.25 (≈ 0.298 µM) | ≤ 0.016 | 0.063 (≈ 0.075 µM) | 0.5 (≈ 0.595 µM) | 0.063 (≈ 0.075 µM)
COc1c(NC(=O)c2ccc(NC(=O)c3ccc(NC(=O)[C@H](Cc4cnn[nH]4)NC(=O)c4ccc(NC(=N)c5ccc(O)cc5)cc4)cn3)c(OC)c2O)ccc(C(=O)O)c1O [Compound 32] | – | – | – | – | – | – | 8 (≈ 9.47 µM) | 2 (≈ 2.37 µM) | 0.125 (≈ 0.148 µM) | 0.5 (≈ 0.592 µM) | 4 (≈ 4.73 µM) | 0.25 (≈ 0.296 µM)
COc1c(NC(=O)c2ccc(NC(=O)c3ccc(NC(=O)[C@H](Cc4cnn[nH]4)NC(=O)c4ccc(NC(=O)c5ccc(-c6nnn[nH]6)cc5)cc4)cc3)c(OC)c2O)ccc(C(=O)O)c1O [Compound 15] | – | – | – | – | – | – | 8 (≈ 8.92 µM) | 2 (≈ 2.23 µM) | 0.063 (≈ 0.0702 µM) | 0.25 (≈ 0.279 µM) | 8 (≈ 8.92 µM) | 0.25 (≈ 0.279 µM)
COc1c(NC(=O)c2ccc(NC(=O)c3ccc(NC(=O)[C@H](Cc4cnn[nH]4)NC(=O)c4ccc(C#Cc5ccc(F)cc5)cc4)cc3)c(OC)c2O)ccc(C(=O)O)c1O [Compound 6] | – | – | – | – | – | – | 0.5 (≈ 0.604 µM) | 0.25 (≈ 0.302 µM) | ≤ 0.016 | 0.031 (≈ 0.0374 µM) | 0.25 (≈ 0.302 µM) | 0.031 (≈ 0.0374 µM)
COc1c(NC(=O)c2ccc(NC(=O)c3ccc(NC(=O)[C@H](Cc4cnn[nH]4)NC(=O)c4ccc5[nH]c(-c6ccc(O)cc6)nc5c4)cn3)c(OC)c2O)ccc(C(=O)O)c1O [Compound 33] | – | – | – | – | – | – | ≥ 8 | ≥ 8 | ≥ 8 | ≥ 8 | ≥ 8 | ≥ 8
